Patent US7531320B2, “Modulation of β-catenin/TCF-activated transcription” (priority 2003, dated 2009)

Experiments:
Assay type in all cases: cell-based, human
[1] = test system: hnkd; assay: Real Time RT-PCR in SW480 cells, hnkd; settings: 25 μM; for ΔCT hnkd: relative to β-actin
Description: (§1) The RNeasy Midi Kit (Qiagen) was used for RNA extraction and Real Time RT-PCR was performed according to the protocol provided with the SYBR Green PCR Master Mix Kit (Perkin Elmer Biosystems, Shelton, Conn.). The primers used for cyclin D1, axin2, hnkd, c-myc, c-jun, and fra-1 amplifications were: cyclin D1 forward primer:5′-[…]-CCTGCTG-3′ (SEQ ID NO: 32) reverse primer: 5′-[…]-3′ (SEQ ID NO: 33) leading to a product size of approximately 300 bp; axin2 forward primer: 5′-[…] GGAAA-CT-3′ (SEQ ID NO: 34) and reverse primer: 5′-[…]-GAGA-3′ (SEQ ID NO: 35); hnkd forward primer: 5′-[…] TTGCGT-3′ (SEQ ID NO: 36) and the reverse primer: 5′-[…] ACGT-3′ (SEQ ID NO: 37); c-myc forward primer: 5′-GAA-[…] CTGC-3′ (SEQ ID NO: 38) and reverse primer: 5′-[…]-G-3′ (SEQ ID NO: 39); c-jun forward primer: 5′-[…]-3′ (SEQ ID NO: 40) and reverse primer: 5′-[…]-3′ (SEQ ID NO: 41); fra-1 forward primer: 5′-ACC-[…]-[…]-3′ (SEQ ID NO: 42) and reverse primer: 5′-[…]-TT-3′ (SEQ ID NO: 43). β-actin was used for normalization. […]
(§2) 1 μg of mRNA, for each time point, was subjected to Real Time RT-PCR. Expression level of endogenous cyclin D1, c-myc, fibronectin, hnkd, axin2, c-jun, and BMP-4 were measured relative to β-actin. Quantitation of The ΔCycle of Threshold (CT) values was determined by subtracting the average values of each set by the corresponding average values obtained for β-actin. […]
(§3) The cyclin D1 gene is inappropriately expressed in many different tumor types, and is known to be a direct target of the Wnt/β-catenin pathway (Shtutman et al., “The cyclin D1 gene is a target of the beta-catenin/LEF-1 pathway,” Proc. Natl. Acad. Sci. USA 96:5522-27 (1999); Tetsu et al., “Beta-catenin regulates expression of cyclin D1 in colon carcinoma cells,” Nature 398:422-26 (1999)). […] Expression level of endogenous cyclin D1, c-myc, fibronectin, hnkd, axin2, c-jun, and BMP-4 were measured relative to β-actin. Quantitation of The ΔCycle of Threshold (CT) values was determined by subtracting the average values of each set by the corresponding average values obtained for β-actin. […]

[2] = test system: axin2; assay: Real Time RT-PCR in SW480 cells, axin2; settings: 25 μM; for ΔCT axin2: relative to β-actin
Description: as §1, §2, §3

[3] = test system: nuclear β-catenin in HCT116 cells; assay: β-catenin immunofluorescence localization in HCT116 cells; settings: 25 μM, 24 hours, to cytoplasmic membrane
Description: FIG. 4. COMPOUND 1 decreases nuclear β-catenin • A. β-catenin immunofluorescence microscopy. Log phase SW480 (left) and HCT116 (right) cells were fixed and stained with either anti-β-catenin red (upper panel, A) or anti-CBP (upper panel, B) green. The center panel represents the superimposed β-catenin and CBP in SW480 (left) and HCT116 (right) cells. […] 25 μg of total protein from the cell extracts of SW480 cells with or without 24 hr treatment of COMPOUND1 was used for detection of cytosolic and nuclear β-catenin.
Immunofluorescence was used to examine the localization of CBP and β-catenin in SW480 and HCT116 cells treated with COMPOUND 1 (25 μM) or control (0.5% DMSO). Cells at log phase were seeded and after 24 hours, the cells were treated with COMPOUND 1 or control. 24 hours post treatment, cells were fixed. The coverslips were incubated with antibodies raised against CBP (A-22) (Santa Cruz Biotechnology) and β-catenin (Transduction Laboratories), respectively. The slides were examined using a Nikon PCM 2000 Laser Scanning Confocal Microscope after the secondary antibodies conjugated to either FITC or TRITC (Jackson ImmunoResearch, Westgrove, Pa.) were applied.

`O=C1C(Cc2ccc(O)cc2)N2C(=O)CCN(C(=O)NCc3ccccc3)C2CN1Cc1cccc2ccccc12` (stereo not shown) [COMPOUND 1] was tested. Which “mRNA hnkd (direction)” value [1] did it give?
The value was “↓”.

What about the ΔCT hnkd ([1]; 4 hours) of the same compound?
The ΔCT hnkd was 0.3.

What about the ΔCT hnkd ([1]; 8 hours) of the same compound?
Its ΔCT hnkd is 1.0.

And the “mRNA axin2 (direction)” value [2]?
Its value is “↓”.

And the “ΔCT axin2” value ([2]; 4 hours)?
The value was 0.3.

What about the “ΔCT axin2” value ([2]; 8 hours) of the same compound?
Its value is 0.8.

What about the “Subcellular distribution of β-catenin” value [3] of the same compound?
Its value is “redistribution of β-catenin”.
